Laboratory results as given in ChEMBL document CHEMBL5614417, “Discovery of AMPs from random peptides via deep learning-based model and biological activity validation” (Eur J Med Chem, 2024).
Values after ≈ are worked out from the molar mass of the structure shown. Active and inactive are the calls of the source. The calls are words filed in the database; no cut-off is given here. Where a SMILES comes first, the peptide text is derived from it.

Legend:
Cell membrane [1] = assay: Induction of cell membrane damage in Escherichia coli at 4 times MIC incubated for 30 mins by PI staining based confocal laser scanning microscopic analysis; assay type: cell membranes
Escherichia coli [2] = assay: Antibacterial activity against Escherichia coli ATCC 25922 incubated for 18 hrs in presence of 50 mM NaCl by visual inspection method; assay type: functional
Staphylococcus aureus [3] = assay: Antibacterial activity against methicillin resistant Staphylococcus aureus 3 incubated for 18 hrs by visual inspection method; assay type: functional
Cell membrane [4] = assay: Disruption of outer membrane integrity in Escherichia coli assessed as increase in fluorescence intensity by measuring NPN uptake measured every min for 15 mins by fluorescence based analysis; assay type: cell membranes
[5] = Toxicity in BALB/c mouse assessed as spleen damage at 400 mg/kg, ip measured after 48 hrs by H and E staining based assay; assay type: organism-based; details: in vivo
Cell membrane [6] = assay: Induction of cell membrane damage in Escherichia coli assessed as change in morphology by measuring roughened membrane at 4 times MIC incubated for 5 hrs by SEM analysis; assay type: cell membranes
Staphylococcus aureus [7] = assay: Antibacterial activity against methicillin resistant Staphylococcus aureus 4 incubated for 18 hrs by visual inspection method; assay type: functional
Erythrocyte = assay: Hemolytic activity in rat erythrocytes incubated for 1 hr; assay type: toxicity, cell-based
Acinetobacter baumannii = assay: Antibacterial activity against multidrug resistant Acinetobacter baumannii 5 incubated for 18 hrs by visual inspection method; assay type: functional
Bacillus subtilis = assay: Antibacterial activity against Bacillus subtilis ATCC 23857 incubated for 18 hrs by visual inspection method; assay type: functional
Escherichia coli [8] = assay: Antibacterial activity against Escherichia coli ATCC 25922 incubated for 18 hrs in presence of 150 mM NaCl by visual inspection method; assay type: functional
Escherichia coli [9] = assay: Antibacterial activity against ESBL Escherichia coli 2 incubated for 18 hrs by visual inspection method; assay type: functional
Cell membrane [10] = assay: Induction of cell membrane damage in Escherichia coli assessed as change in morphology by measuring numerous blebs covered membrane at 4 times MIC incubated for 5 hrs by SEM analysis; assay type: cell membranes
Cell membrane [11] = assay: Induction of inner membrane permeability in Escherichia coli ML-35 at 1 to 4 times MIC by ONPG dye based assay; assay type: cell membranes; details: TDE = time-dependent effect

CC[C@H](C)[C@H](NC(=O)[C@H](Cc1ccccc1)NC(=O)[C@@H](N)Cc1c[nH]c2ccccc12)C(=O)N[C@H](C(=O)N[C@@H](Cc1c[nH]c2ccccc12)C(=O)N[C@@H](Cc1c[nH]cn1)C(=O)N[C@@H](Cc1c[nH]c2ccccc12)C(=O)N[C@@H](CCCNC(=N)N)C(=O)N[C@@H](CCCCN)C(=O)N[C@H](C(=O)N1CCC[C@H]1C(=O)N1CCC[C@H]1C(=O)N[C@@H](CCCCN)C(N)=O)[C@@H](C)CC)[C@@H](C)CC (H-WFIIWHWRKIPPK-NH2)
Activity (Cell membrane [1]): Active
MIC (Escherichia coli [2]): 15 µg/mL
MIC (Staphylococcus aureus [3]): 7.5 µg/mL (≈ 4.15 µM)
Activity (Cell membrane [4]): Dose-Dependent Effect
Activity [5]: Non-Toxic
Activity (Cell membrane [6]): Active
MIC (Staphylococcus aureus [7]): 7.5 µg/mL (≈ 4.15 µM)
HC5 (Erythrocyte): 416.15 µg/mL
MIC (Acinetobacter baumannii): 7.5 µg/mL (≈ 4.15 µM)
MIC (Bacillus subtilis): 3.75 µg/mL (≈ 2.08 µM)
MIC (Escherichia coli [8]): 15 µg/mL
MIC (Escherichia coli [9]): 15 µg/mL (≈ 8.3 µM)
Activity (Cell membrane [10]): Active
Activity (Cell membrane [11]): Tde
